These results are taken from paper PMC11748363, “Antimicrobial and Antiproliferative Properties of 2‐Phenyl‐N‐(Pyridin‐2‐yl)acetamides” (Chemical Biology & Drug Design, 2025).

One data set deals with HepG2 cell line. Nature of the data set: Cytotoxicity CellTiter 96, HepG2. In kind it is cell-based, human. Particulars: 24 h incubation, ^c compound precipitated in the testing medium, ^d over the limit of tested concentrations.
Data set [1] deals with Trichophyton interdigitale CCM 8377, ATCC 9533. Nature of the data set: Antifungal microdilution broth MIC, TI. The following applies: Trichophyton interdigitale. (Dilution methods test growth across graded concentrations, often in twofold steps.)
For data set [2] the following is noted: buffer, 3 h, 1 µM, pH 7.4.
Procedure: HPLC-MS stability determination in PBS (pH 7.4)
Briefly, compounds were dissolved in DMSO to produce stock sample solutions.
NaOH. The concentration of tested compounds was set at 1 µM.
After that, 150 µL of supernatant was
transferred to the vial and analyzed by LC-MS.
3000 RS coupled with a Q Exactive Plus orbitrap mass spectrometer to obtain the areas (Thermo Fisher
Scientific, Bremen, Germany). Reverse-phase C18 column Kinetex EVO (Phenomenex, Torrance, CA,
USA) was used as a stationary phase, and purified water with 0.1% formic acid (mobile phase A) and
LC-MS grade acetonitrile with 0.1% formic acid (mobile phase B) were used as the mobile phases.
Gradient elution was used to determine purities and mass spectra. The method started with 5% B for
0.3 min, then the gradient switched to 100% B in the third min, remained at 100% B for 0.7 min and
then went back to 5% B with equilibration for 3.5 min. The total run time of the method was 7.5 min.
The column temperature was kept constant at 27 °C, the flow of the mobile phase was 0.5 mL/min,
and the injection volume was 1 µL.
The subject of data set [3] is Staphylococcus aureus subsp. aureus CCM 4750, ATCC 43300 (MRSA). Nature of the data set: Antibacterial microdilution broth MIC, MRSA. Particulars: Staphylococcus aureus. It is filed as cell-based.
Data set [4] relates to Candida tropicalis CCM 8264, ATCC 750. Briefly: Antifungal microdilution broth MIC, CT.
The subject of data set [5] is Aspergillus flavus CCM 8363. Nature of the data set: Antifungal microdilution broth MIC, AFla.
Data set [6] concerns Staphylococcus epidermidis CCM 4418, ATCC 12228. Briefly: Antibacterial microdilution broth MIC, SE. It is filed as cell-based.
Data set [7] relates to Klebsiella pneumoniae CCM 4415, ATCC 10031. Nature of the data set: Antibacterial microdilution broth MIC, KP.
The test system of data set [8] is Mycobacterium tuberculosis H37Ra. Nature of the data set: Antimycobacterial microdilution broth MIC (resazurin), Mtb H37Ra. It is filed as cell-based. The following applies: for MIC: Mycobacterium tuberculosis, H37RA, read-out: MIC Mtb H37Ra.
Data set [9] relates to Staphylococcus aureus CCM 4223, ATCC 29213. Nature of the data set: Antibacterial microdilution broth MIC, SA. It is filed as cell-based. Particulars: Staphylococcus aureus.
The subject of data set [10] is Lichtheimia corymbifera CCM 8077. Briefly: Antifungal microdilution broth MIC, LC.
Data set [11] has as its system Mycolicibacterium smegmatis DSM 43465. Briefly: Antimycobacterial microdilution broth MIC (resazurin), M. smegmatis. It is filed as cell-based. Particulars: DSM43465, read-out: MIC M. smegmatis.
Another data set relates to PC‐3 cell line. Nature of the data set: Cytotoxicity CellTiter 96, PC-3. It is filed as cell-based. Particulars: Homo sapiens, 24 h incubation. As to the method:
The cytotoxicity of final compounds was determined in human hepatocellular carcinoma cell line HepG2. Additional testing of selected compounds was performed on human epithelial kidney cancer cell line A498, human prostate cancer cell line PC‐3, human glioblastoma cell line U‐87 MG, and normal human proximal tubule cell line HK‐2.
Cytotoxicity determination […]
For subculturing, the cells were harvested after trypsin/EDTA (Sigma–Aldrich) treatment at 37 °C. To evaluate cytotoxicity, the cells treated with the tested substances were used as experimental groups whereas untreated HepG2 cells served as controls. The cells were seeded in density 10,000 cells per well in a 96 well plate. The next day the cells were treated with each of the tested substances dissolved in DMSO. The tested substances were […]
in triplicates according to their solubility. Simultaneously, the controls representing 100% cell viability, 0% cell viability (the cells treated with 10% DMSO), no cell control and vehiculum controls were also […]
the reagent from the kit CellTiter 96 AQueous One Solution Cell Proliferation Assay (CellTiter 96; PROMEGA, Fitchburg, USA) was added. After 2h incubation at 37 °C, absorbance of samples was recorded at 490 nm (TECAN, Infinita M200, Austria). A standard toxicological parameter IC50 was calculated by nonlinear regression from a semilogarithmic plot of incubation concentration versus percentage of absorbance relative to untre ated controls using GraphPad Prism 8 software. […]
Kaighn's Modification of Ham's F-12 Medium and human glioblastoma astrocytoma U-87 MG cell line, […]
Glucose medium. All cultures were supplemented with 10% fetal bovine serum, 1% non-essential amino acids (A498, HK-2 and U-87 MG), 1% sodium pyruvate (A498, HK-2 and U-87 MG) and 2 mM L-glutamine. All cell culture consumables were purchased from Merck (Darmstadt, Germany). The cells

Where [12] appears, read: CCM8363, 24 h, read-out: MIC AFla 24h.
The mark [13] stands for this setting: CCM8363, 48 h, read-out: MIC AFla 48h.
Setting [14] is: CCM8077, 24 h, read-out: MIC LC 24h.
Where [15] appears, read: CCM8077, 48 h, read-out: MIC LC 48h.

pIC50: −log10 of the molar value. ≈ marks a conversion by molar mass, not a printed value. Read-outs that look alike come from different tables or passages of the source.

Procedure for HepG2 cell line: Human hepatocellular liver carcinoma cell line HepG2 purchased from Health Protection Agency Culture Collections (ECACC, Salisbury, UK) was cultured in MEM (Minimum Essentials Eagle Medium, Sigma–Aldrich) supplemented with 10% fetal bovine serum (PAA Laboratories, Pasching, Austria), 1% L-glutamine solution (Sigma–Aldrich) and non-essential amino acid solution (Sigma–Aldrich) in a humidified atmosphere containing 5% CO2 at 37 °C. For subculturing, the cells were harvested after trypsin/EDTA (Sigma–Aldrich) treatment at 37 °C. To evaluate cytotoxicity, the cells treated with the tested substances were used as experimental groups whereas untreated HepG2 cells served as controls. The cells were seeded in density 10,000 cells per well in a 96 well plate. The next day the cells were treated with each of the tested substances dissolved in DMSO. The tested substances were

For `COc1ccc(CC(=O)Nc2cccc(Cl)n2)cc1` [Compound 12, 2-(4-methoxyphenyl)-N-(6-chloropyridin-2-yl)acetamide], the pIC50 in the data set with HepG2 cell line was 3.29; in the data set with HepG2 cell line (Homo sapiens, HepG2, 24 h) it was below 3.30. The MIC in data set [1] (72 h, read-out: MIC TI 72h) was above 500 µM; in [1] (120 h, read-out: MIC TI 120h), above 500 µM; in [3] (24 h, read-out: MIC MRSA 24h), 500 µM (≈ 138 µg/mL); in data set [3] (48 h, read-out: MIC MRSA 48h) it was above 500 µM; in [4] (24 h, read-out: MIC CT 24h), above 500 µM; in data set [4] (48 h, read-out: MIC CT 48h), above 500 µM. Moreover, the MIC in data set [5] (setting [12]) was above 500 µM; in data set [5] (setting [13]), above 500 µM; in data set [6] (24 h, read-out: MIC SE 24h), 500 µM (≈ 138 µg/mL); in [6] (48 h, read-out: MIC SE 48h), above 500 µM; in [8] (Calculated from MIC (μg/mL)) it was 56.3 µM; in data set [8], 15.6 µg/mL. Also, the MIC is 500 µM (≈ 138 µg/mL) in [9] (24 h, read-out: MIC SA 24h); 500 µM (≈ 138 µg/mL) in data set [9] (48 h, read-out: MIC SA 48h); above 500 µM in data set [10] (setting [14]); above 500 µM in data set [10] (setting [15]); 62.5 µg/mL (≈ 226 µM) in data set [11]. In [2], the “concentration remaining (hydrolytic stability)” value is at least 90%. Also, the “MIC KP 24h” value in data set [7] is above 500 µM. In [7], the “MIC KP 48h” value is above 500 µM. Moreover, in [8] (SI = HepG2 IC50 (μM)/MIC MtbH37Ra (μM), calculated for compounds with MIC ≤ 31.25 μg/mL), the “SI (selectivity index)” value is 9.2.

Consider `O=C(Cc1ccccc1C(F)(F)F)Nc1cccc(Cl)n1` [Compound 24], for which the pIC50 in the data set with HepG2 cell line (Homo sapiens, HepG2, 24 h) is 4.19; with PC‐3 cell line, below 4.00. Also, the MIC was 500 µM (≈ 157 µg/mL) in data set [1] (72 h, read-out: MIC TI 72h); 500 µM (≈ 157 µg/mL) in data set [1] (120 h, read-out: MIC TI 120h); above 500 µM in data set [3] (24 h, read-out: MIC MRSA 24h); above 500 µM in data set [3] (48 h, read-out: MIC MRSA 48h); above 500 µM in [4] (24 h, read-out: MIC CT 24h); above 500 µM in data set [4] (48 h, read-out: MIC CT 48h). In addition, the MIC in data set [5] (setting [12]) was above 500 µM; in data set [5] (setting [13]) it was above 500 µM; in data set [6] (24 h, read-out: MIC SE 24h), above 500 µM; in data set [6] (48 h, read-out: MIC SE 48h), above 500 µM; in data set [8] (Calculated from MIC (μg/mL)), above 1590 µM; in data set [8], above 500 µg/mL. Also, the MIC in data set [9] (24 h, read-out: MIC SA 24h) is above 500 µM; in data set [9] (48 h, read-out: MIC SA 48h), above 500 µM; in data set [10] (setting [14]), above 500 µM; in [10] (setting [15]), above 500 µM; in [11], above 500 µg/mL. Further, the “concentration remaining (hydrolytic stability)” value in data set [2] is given as at least 90%. Further, in data set [7], the “MIC KP 24h” value was above 500 µM. For the same molecule, in [7], the “MIC KP 48h” value was above 500 µM.

Turning to `O=C(Cc1cccc(C(F)(F)F)c1)Nc1ccc(Cl)cn1` [Compound 26], the pIC50 with HepG2 cell line (Homo sapiens, HepG2, 24 h) is 4.28; in the data set on PC‐3 cell line, 4.14. Also, the MIC was 500 µM (≈ 157 µg/mL) in data set [1] (72 h, read-out: MIC TI 72h); 500 µM (≈ 157 µg/mL) in [1] (120 h, read-out: MIC TI 120h); above 500 µM in [3] (24 h, read-out: MIC MRSA 24h); above 500 µM in data set [3] (48 h, read-out: MIC MRSA 48h); above 500 µM in data set [4] (24 h, read-out: MIC CT 24h); above 500 µM in data set [4] (48 h, read-out: MIC CT 48h). For the same molecule, the MIC in [5] (setting [12]) was above 500 µM; in data set [5] (setting [13]), above 500 µM; in [6] (24 h, read-out: MIC SE 24h), above 500 µM; in data set [6] (48 h, read-out: MIC SE 48h), above 500 µM; in data set [8] (Calculated from MIC (μg/mL)) it was above 1590 µM; in data set [8] it was above 500 µg/mL. In addition, the MIC is above 500 µM in data set [9] (24 h, read-out: MIC SA 24h); above 500 µM in [9] (48 h, read-out: MIC SA 48h); above 500 µM in data set [10] (setting [14]); above 500 µM in [10] (setting [15]); 125 µg/mL (≈ 397 µM) in data set [11]. Also, the “MIC KP 24h” value in [7] is above 500 µM. Besides, in data set [7], the “MIC KP 48h” value was above 500 µM.

In the case of `O=C(Cc1cccc(Cl)c1)Nc1ccc(Cl)cn1` [Compound 17, 2-(3-chlorophenyl)-N-(5-chloropyridin-2-yl)acetamide], the negative-log IC50 (pIC50) with HepG2 cell line (Homo sapiens, HepG2, 24 h) was 3.95; in the data set on PC‐3 cell line it was 3.67. Moreover, the MIC is 500 µM (≈ 141 µg/mL) in [1] (72 h, read-out: MIC TI 72h); 500 µM (≈ 141 µg/mL) in data set [1] (120 h, read-out: MIC TI 120h); above 500 µM in data set [3] (24 h, read-out: MIC MRSA 24h); above 500 µM in [3] (48 h, read-out: MIC MRSA 48h); above 500 µM in data set [4] (24 h, read-out: MIC CT 24h); above 500 µM in [4] (48 h, read-out: MIC CT 48h). The MIC in [5] (setting [12]) was above 500 µM; in data set [5] (setting [13]), above 500 µM; in [6] (24 h, read-out: MIC SE 24h) it was above 500 µM; in data set [6] (48 h, read-out: MIC SE 48h) it was above 500 µM; in data set [8] (Calculated from MIC (μg/mL)) it was 445 µM; in data set [8], 125 µg/mL. Also, the MIC in data set [9] (24 h, read-out: MIC SA 24h) was above 500 µM; in data set [9] (48 h, read-out: MIC SA 48h), above 500 µM; in data set [10] (setting [14]) it was above 500 µM; in [10] (setting [15]) it was above 500 µM; in data set [11], above 500 µg/mL. The “MIC KP 24h” value in [7] was above 500 µM. Further, the “MIC KP 48h” value in data set [7] is above 500 µM.

One may read the pIC50 as the IC50 on a negative log10 scale, so that one unit is a factor of ten. Low values mean a high IC50, high ones a low IC50. The term MIC denotes the least concentration at which growth counts as inhibited.
